The values that follow come from patent publication US5169984A, “Synthesis and characterization of N-bromoacetyl-3,3'5-triiodo-L-thyronine using high speed countercurrent chromatography” (The United States of America as represented by the …, priority 1990, dated 1992).

For the data set the following is noted: crude, prior to HSCCC; ethyl acetate, well-sealed container, -20° C., over four months. As for the experimental part:
Chromatograms were monitored by radioactivity. In FIG. 2A the sample was freshly prepared while in FIG. 2B the sample was stored for 4.2 months in ethyl acetate at -20° C. […] Other conditions were the same as in FIGS. 1A and 1B.

`O=C(CBr)N[C@@H](Cc1cc(I)c(Oc2ccc(O)c(I)c2)c(I)c1)C(=O)O` [BrAc[^125 I]T3, ^125 I-labeled N-bromoacetyl-3,3',5-triiodo-L-thyronine]: the decomposition on storage result was “partial decomposition”.
